Results on 1 compound are retold here after US20040132037A1, “Materials and methods for the induction of premature chromosone condensation” (priority 2004, published 2004).

Read-outs that look alike come from different tables or passages of the source.

The test system of data set [1] is mitogen-stimulated HPBL. In words: PCC induction (PCC index) by OA in mitogen-stimulated HPBL. The data set is classed as cell-based, human. As to the method:
(§1) PCC spreads may be prepared according to standard cytogenetic procedures directly after the indicated treatment. Briefly, cells may be treated with a hypotonic potassium chloride (0.075 M) solution for 5 minutes and fixed in acetic: methanol (1:3) fixative. Fixed cells may be dropped onto acid cleaned glass slides.
(§2) To directly visualize the spread chromosomes, the slides may be stained. Suitable stains are known to those of skill in the art, for example, a 4% aqueous solution of Giemsa stain may be used for observation under a light microscope. Coded slides can be analyzed under 1000×magnification. Cells with condensed chromatin material displaying at least partial separation of chromosomes are scored as PCC spreads.
(§3) The PCC index may be determined as follows. [formula]
HPBLs prepared as described above may be incubated in cell culture medium supplemented with an energy source. In order to determine the optimal OA concentration and duration of incubation for PCC, phytohemagglutinin (PHA, 10 μg/ml; Murex Diagnostics) was subsequently added to the medium to stimulate proliferation.
(§4) The HPBL were treated with OA at concentrations ranging from 0.25 to 1 μM in a cell culture medium containing 100 μM ATP and incubated at 37° C. for varying durations of up to 24 hours. Slides were prepared and PCC index was determined as explained above.

Data set [2] deals with unstimulated HPBL. In words: PCC induction (PCC index) in unstimulated HPBL. Type of data set: cell-based, human. The conditions noted are these: cell culture medium containing OA alone, no mitogen. As to the method:
as §1, §2, §3, §4
In the following working example of the present invention, PCC induction in unstimulated HPBL was accomplished by the addition of p34^cdc2/cyclin B kinase to the complete media supplemented with ATP (100 μM) containing OA (0.75 μM) and incubation for three hours at 37° C. […]

For data set [3], the system named is human myeloid leukemic cell lines. Conditions: cited from earlier work.

On to `C=C1[C@@H](O)[C@@H]2O[C@]3(CC[C@H](/C=C/[C@@H](C)[C@@H]4CC(C)=C[C@@]5(O[C@H](C[C@@](C)(O)C(=O)O)CC[C@H]5O)O4)O3)CC[C@H]2O[C@@H]1[C@@H](O)C[C@H](C)[C@H]1O[C@@]2(CCCCO2)CC[C@H]1C` [OA, okadaic acid], for which, in data set [1] (OA 0.25 μM, within 1 hour, p<0.01, Student's t-test), the “PCC levels determined by PCC index compared with controls” value is “significant”. The cytostatic effect result in data set [1] (OA 0.75 μM) is given as “not cytostatic”. The “PCC index, maximum” value in data set [1] (OA 1 μM, 8 hours, PHA 10 μg/ml, 100 μM ATP, 37° C.) is reported as 61%. In data set [1] (prolonged treatment with higher concentrations of OA, possibly due to toxicity), the “quality of PCC spreads” value is reported as “poor spread quality”. Besides, the PCC induction entry in data set [2] was “did not result in PCC induction”. Also, the “phase of cell-cycle arrest” value in data set [3] (higher PCC inducible concentrations (above 0.5 μM)) is “G1-S-phase”; in data set [3] (lower concentrations), “G2-M phase”.
